# According to the NIST ThermoML archive (doi:10.1016/j.tca.2018.02.007):
# Numbers after ± are expanded uncertainties.
# Legend:
# [1] = for thermal conductivity: 101.33 kPa, T-histrory method; for Triple point temperature: DSC
# [2] = Molar enthalpy of transition or fusion; settings: DSC
smiles,measurement,setting,value
"OCC(CO)(CO)CO [2,2-bis(hydroxymethyl)-1,3-propanediol]",thermal conductivity,"[1]; 340.65 K, Crystal 2",0.112 ± 0.007 W/m/K
same,thermal conductivity,"[1]; 395.65 K, Crystal 2",0.108 ± 0.007 W/m/K
same,thermal conductivity,"[1]; 450.65 K, Crystal 2",0.104 ± 0.006 W/m/K
same,Triple point temperature,[1]; Crystal 1,531.25 ± 0.8 K
same,Triple point temperature,[1]; Crystal 2,454.55 ± 0.8 K
same,Molar enthalpy of transition or fusion,[2]; Crystal 1,1.4 ± 0.0645 kcal/mol
same,Molar enthalpy of transition or fusion,[2]; Crystal 2,8.59 ± 0.382 kcal/mol
